Data published in PMC9867837 (Cancer letters, 2022).

Key:
MDA-MB-231 cells = experiment: Soft-agar colony formation; assay type: cell-based, human; conditions: 0.3–2 μM H182
Method: These studies were performed as previously reported. Details are presented in Supplementary Information, “Methods”.
These studies were performed as previously reported . For the clonogenic survival assay, briefly, cells were seeded as single-cell (500 cells per well) in 6 -well plates, then untreated (DMSO control) or treated once the following day with H182 and allowed to grow until large colonies were visible, which were stained with crystal violet for 4 h and imaged with a FluorChem imaging system (Protein Simple, Santa Clara, CA).
For the soft-agar assay, briefly, each well contained a bottom layer of 1 ml of 1% agarose in complete DMEM and a top layer of 1 ml of 0.5% agarose in complete DMEM containing 500 cells. After the upper agar layer containing cells solidified, 1 ml culture medium containing H182 (0-2 µM) or DMSO (control) was overlaid, and the cultures were maintained at 37 °C in the incubator, with the medium replacement every 3-4 days with fresh medium that contains the inhibitor or not. Cells were allowed to culture for 3-4 weeks until large colonies were visible under microscope. The colonies were stained with crystal violet and […]
1.2.8. Confocal microscopy studies
4 cells in 1 ml) in logarithmic
These studies were performed as previously reported. […]

[1] = molecular target: T1, norepinephrine transporter (NET) (Homo sapiens, UniProt P23975); experiment: CEREP SafetyScreen44, norepinephrine transporter; assay type: binding
T1 construct: Eurofins-CEREP (SafetyScreen44 panel)
T1 sequence (P23975 whole entry): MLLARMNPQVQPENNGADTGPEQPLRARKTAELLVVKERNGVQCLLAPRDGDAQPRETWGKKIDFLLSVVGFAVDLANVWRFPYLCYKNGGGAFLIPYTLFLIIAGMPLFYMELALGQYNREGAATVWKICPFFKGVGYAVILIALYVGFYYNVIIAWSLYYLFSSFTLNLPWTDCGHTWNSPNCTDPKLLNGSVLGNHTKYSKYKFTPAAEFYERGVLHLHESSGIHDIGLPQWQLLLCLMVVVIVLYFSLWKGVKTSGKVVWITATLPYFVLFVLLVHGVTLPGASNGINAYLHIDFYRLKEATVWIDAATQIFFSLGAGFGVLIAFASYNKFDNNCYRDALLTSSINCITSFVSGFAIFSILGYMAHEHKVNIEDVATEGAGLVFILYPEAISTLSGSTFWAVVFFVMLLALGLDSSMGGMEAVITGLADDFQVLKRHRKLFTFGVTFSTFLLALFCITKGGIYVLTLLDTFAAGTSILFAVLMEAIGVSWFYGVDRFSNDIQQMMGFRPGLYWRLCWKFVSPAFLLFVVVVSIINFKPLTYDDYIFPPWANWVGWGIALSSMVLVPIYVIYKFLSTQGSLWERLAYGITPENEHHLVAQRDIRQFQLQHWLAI

pYStat3C328A = molecular target: T2, pYStat3C328A (Homo sapiens, UniProt P40763, C328A); experiment: EMSA with purified mutant pYStat3C328A; assay type: biochemical; conditions: 3 μM H182, 30 min
T2 construct: made in house; host or cells: E. coli BL21(DE3) TKB1 (inducible tyrosine kinase)
T2 sequence (P40763 127-711 C328A): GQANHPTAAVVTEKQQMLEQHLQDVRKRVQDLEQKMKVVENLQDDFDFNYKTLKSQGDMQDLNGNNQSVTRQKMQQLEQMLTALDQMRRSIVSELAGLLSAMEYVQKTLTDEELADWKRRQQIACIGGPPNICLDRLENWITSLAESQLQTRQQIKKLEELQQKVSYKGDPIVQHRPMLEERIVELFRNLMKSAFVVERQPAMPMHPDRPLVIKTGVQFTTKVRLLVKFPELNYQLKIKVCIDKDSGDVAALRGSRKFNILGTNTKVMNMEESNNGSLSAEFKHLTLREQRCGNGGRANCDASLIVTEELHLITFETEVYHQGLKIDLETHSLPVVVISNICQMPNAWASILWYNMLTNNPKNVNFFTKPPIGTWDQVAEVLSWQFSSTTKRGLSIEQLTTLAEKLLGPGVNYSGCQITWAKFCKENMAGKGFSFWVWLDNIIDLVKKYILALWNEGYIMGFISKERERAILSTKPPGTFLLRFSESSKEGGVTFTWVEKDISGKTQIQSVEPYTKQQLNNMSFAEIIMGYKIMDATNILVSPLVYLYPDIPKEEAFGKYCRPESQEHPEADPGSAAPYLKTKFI
Description: This construct was used to generate the mutants, Stat3C328A, Stat3C426A, Stat3C468A, and Stat3C542S, as described in detail in Supplementary Information “Methods”.
The expression of un-phosphorylated and tyrosine phosphorylated His-tagged recombinant wtStat3 and mutant Stat3 proteins in BL21 (DE3) bacterial cells is described in detail in Supplementary Information “Methods”.
Given the MS data, we conducted site-directed mutagenesis analysis for the effects of Cys mutations (Cys-to-Ala or Cys-to-Ser mutations) on the inhibitory activities or potencies of the compounds. […]
In another case, the nuclear extract was pre-incubated with the radiolabeled probe for 30 min at 30 °C prior to incubation with increasing concentration of H182 at room temperature for 30 min and subjecting to EMSA analysis. Bands corresponding to Stats DNA- binding activities were scanned and quantified using ImageJ and plotted as a percentage of control (vehicle) against the concentration of the inhibitor, from which the IC50 values were derived . […]
These studies were performed as previously reported using the v-Src -transformed NIH3T3/v-Src fibroblasts [1 -5] . […] Luciferase activity was normalized to total protein concentration of cell lysate, which was determined by Bradford assay (Bio-Rad, Hercules, CA) . […]

Plasma stability, mouse = assay type: in vitro ADME
Method: Solubility, human (HLM) and mouse liver microsomal (MLM), and plasma stability studies were performed by Eurofins Cerep Panlabs and Eurofin Discovery Services (www.eurofins.com/PharmaDiscovery), while protein binding studies were performed by Sanford Burnham Prebys Chemical Biology & Drug Discovery Core using standard protocols.

In the case of `O=C([C@H]1CCN1S(=O)(=O)c1c(F)c(F)c(F)c(F)c1F)N(Cc1ccc(C2CCCCC2)cn1)c1ccc2c(=O)[nH]ncc2c1` [Compound H182], the “Effect on anchorage-independent growth in soft-agar” value (MDA-MB-231 cells) is reported as “potently and dose-dependently inhibited”, the inhibition at 10 µM ([1]; 10 μM H182) is reported as over 80% and the IC50 ([1]; SafetyScreen44 follow-up dose-response) is reported as 400 nM. For the same molecule, the “Effect on DNA-binding activity of pYStat3C328A” value (pYStat3C328A) was “strong inhibition”, the remaining at 1 h (Plasma stability, mouse; 1 h) was 69% and the remaining at 2 h (Plasma stability, mouse; 2 h) was 23%.
